How the values were obtained:
COLO 205 cells = experiment: MTS cytotoxicity test with COLO 205 cells; type: cell-based, human; settings: 3 days
Procedure: The assay, which is sold in kit form by Promega (Madison, Wis.; CellTiter 96 AQueous Non-Radioactive Cell Proliferation Assay), is based on the conversion by viable cells, but not by dead cells, of the tetrazolium salt, MTS (3-(4,5-dimethylthiazol-2-yl)-5-(3-carboxymethoxyphenyl)-2-(4-sulphophenyl)-2H-tetrazolium, inner salt), into a water-soluble colored formazan which is detected by spectrophotometry. Compounds are tested at nine concentrations, in order to determine IC50 values. For the test procedure, cells are harvested by trypsinization (or, in the case of non-adherent cells, by simple resuspension), washed, counted and distributed to wells of 96-well flat-bottom microtiter plates at 1000 cells per well in 200 μL of medium. In addition, one row of wells on a separate plate received cells as above (“time 0” plate). All plates are incubated at 37° in humidified 5% CO2 in air for about 24 hr.
On day 2, compounds for test are diluted and added to wells. Compounds are dissolved in DMSO at 10 mg/mL. For each compound, nine serial 2-fold dilutions are prepared in DMSO. Ten μL of each dilution in DMSO is transferred to 100 μL of medium, mixed well, and then 5 μL of this dilution is transferred in quadruplicate to wells containing cells. The final high concentration of each compound is typically 5 μM. Plates are returned to the incubator for three days. At the time of drug addition to the experimental plates, the MTS assay is run on the “time 0” plate. This produced the “time 0 MTS value” which is related to the number of viable cells per well at the time of drug addition.
After three days of culture with test compounds (day 5 overall), the MTS assay is done on all wells of the experimental plates. The absorbance values of the quadruplicate sample wells are averaged and divided by the average of the “time 0” values. The average of control wells without drug, divided by the average “time 0” value, gave the maximal relative increase in MTS color yield due to cell growth during the final three days of culture. The average of control wells with high drug concentration, divided by the “time 0” value, gave the minimal relative color yield for cells that are completely killed. The nine values for each compound are plotted against concentration, and the concentration that produced a relative color yield half way between the maximum and minimum is taken as the IC50 value.
COLO 205 is a human colon carcinoma cell line that is used for comparative testing of the examples of this invention and several reference compounds. This line is sensitive to paclitaxel and vincristine.

MAP-rich tubulin = experiment: Tubulin polymerization test with MAP-rich tubulin; type: biochemical, bovine; settings: 0.3 μM compound, 20 min, fold enhancement over control
Procedure: Medium is RPMI-1640 with L-glutamine, supplemented with 10% heat-inactivated fetal calf serum, 100 units/ml penicillin, and 100 μg/ml streptomycin (Gibco, Grand Island, N.Y.). Microtubule-associated protein (MAP)-rich tubulin, containing about 70% tubulin and 30% MAPs (#ML113), and highly purified tubulin (>99% pure, #TL238), both from bovine brain, are obtained from Cytoskeleton, Inc., Denver, Colo. PEM buffer (80 mM piperazine-N,N′-bis[2-ethanesulfonic acid], pH 6.9, 1 mM ethylene glycol-bis(β-aminoethyl ether)-N,N,N′,N′-tetraacetic acid, 1 mM magnesium chloride) and guanosine 5′-triphosphate (GTP) are also obtained from Cytoskeleton. [3H]paclitaxel, specific activity 14.7 Ci/mmol, is purchased from Moravek Biochemicals (Brea, Calif.). [^3H]vinblastine, specific activity 9.60 Ci/mmol and MicroSpin G-50 columns are obtained from Amersham Biosciences (Piscataway, N.J.). […] Other reagents are obtained from Sigma (St. Louis, Mo.).
Two variations of this procedure are done, one using MAP-rich tubulin and one using pure tubulin.
MAP-rich tubulin is dissolved in ice-cold PEM buffer containing 1 mM GTP (GPEM buffer) at a concentration of 1.3 mg/mL. The solution is centrifuged at top speed in an Eppendorf model 5415C microcentrifuge (Brinkmann Instruments, Westbury, N.Y.) for 10 min at […] immediately before use. The tubulin solution is added to wells of a ½-area 96-well plate (Costar No. 3696, Corning, Inc., Corning, N.Y.) already containing the compounds of interest. Each compound is tested in duplicate at a final concentration of 0.3 μM in a volume of 110 μL per well. The final DMSO concentration in all wells is 0.3%. Control reactions, which received compound solvent only, are done in quadruplicate. The plate is put in a SpectraMax Plus plate reader (Molecular Devices Corp. Sunnyvale, Calif.) thermostated at 24° and the absorbance of each well at 340 nm, a measure of the appearance of turbidity due to tubulin polymer formation, is determined every minute for 60 minutes. The absorbance at time 0 for each well is subtracted from each of the subsequent absorbance readings for that well, and then the duplicates are averaged.
In this assay, control reactions with MAP-rich tubulin show an S-shaped absorbance profile characterized by three phases: first, a lag phase during which no change in absorbance occurs; second, a polymerization phase in which absorbance increases; and third, a plateau phase in which absorbance has reached a maximum and little or no further change occurs. Polymerization enhancers such as paclitaxel and docetaxel shorten or eliminate the lag phase, increase the rate of the polymerization phase, and often increase the height of the plateau. […] The compounds of this invention have a taxane-like effect on the polymerization reaction. This has been expressed quantitatively in Table 5 by dividing the mean A340 of each sample at 20 min by the mean A340 of the control at 20 min to give a fold enhancement over control. […] Examples of this invention have factors ranging up to 8.1, with the majority in the 5 to 6-fold range.

[1] = system: A549 Human Non-Small Cell Lung Carcinoma; experiment: Human tumor xenograft test, A549; type: in vivo, athymic mice; settings: A549, intravenously q4dX8 at 40 mg/kg
Procedure: (§1) The ability of compounds of this invention to inhibit tumor growth in animals is studied in the athymic mouse xenograft standard pharmacological test. Female nu/nu mice in an outbred albino background are obtained from Charles River Laboratories (Wilmington, Mass.). Animals are injected subcutaneously on the flank with the desired tumor cell suspension. Several days later, mice with tumors of approximately 150 mm^3 are selected from those injected (staged) and randomly distributed into groups of 5-10. The day of staging is called day 0. Compounds of the invention, usually formulated in saline (exceptions are noted in tables), are administered to animals by intravenous injection or oral gavage on various schedules starting on day 0 or 1, as noted in the tables. The control group in each experiment is dosed with vehicle on the same schedule. Tumor size is measured every 3-7 days with calipers in two orthogonal dimensions, and tumor volume is calculated from the formula volume=[(length×width^2)/2].
(§2) Tumor/Control (T/C) is obtained by dividing the mean tumor volume of the treated group by the mean tumor volume of the control group on each measurement day. A treatment dose is defined as active if it produced a statistically significant T/C of 0.50 or less. A p value≦0.05, determined by one-side Student's t-test, is required for statistical significance. A treatment dose is defined as toxic if more than 10% of the animals died from a compound-related toxicity.

[2] = system: DLD1 Human Colon Carcinoma; experiment: Human tumor xenograft test, DLD1; type: in vivo; settings: DLD1, 15 mg/kg intravenously on days 1, 5, 9, and 13
Procedure: as §1, §2

Row | Compound | IC50 (COLO 205 cells; Homo sapiens, COLO 205, 72 h) | A340 Compound/A340 Control (MAP-rich tubulin) | also measured
1 | C[C@H](Nc1c(-c2c(F)cc(OCCN3CCOCC3)cc2F)c(Cl)nc2ncnn12)C(F)(F)F [Example 17, 5-Chloro-6-[2,6-difluoro-4-(2-morpholin-4-ylethoxy)phenyl]-N-[(1S)-2,2,2-trifluoro-1-methylethyl][1,2,4]triazolo[1,5-a]pyrimidin-7-amine] | 245 nM | 4.8 | –
2 | C[C@H](Nc1c(-c2c(F)cc(OCCCCN(C)C)cc2F)c(Cl)nc2ncnn12)C(F)(F)F [Example 15, 5-Chloro-6-{4-[4-(dimethylamino)butoxy]-2,6-difluorophenyl}-N-[(1S)-2,2,2-trifluoro-1-methylethyl][1,2,4]triazolo[1,5-a]pyrimidin-7-amine] | 276 nM | 5.5 | –
3 | CN(C)CCCOc1cc(F)c(-c2c(Cl)nc3ncnn3c2NCC(F)(F)F)c(F)c1 [Example 4, 5-Chloro-6-{4-[3-(dimethylamino)propoxy]-2,6-difluorophenyl}-N-(2,2,2-trifluoroethyl)[1,2,4]triazolo[1,5-a]pyrimidin-7-amine] | – | – | tumor growth inhibition (activity call) [1]: inhibited the growth
4 | CCNCCCOc1cc(F)c(-c2c(Cl)nc3ncnn3c2N[C@@H](C)C(F)(F)F)c(F)c1 [Example 7, 5-Chloro-6-{4-[3-(ethylamino)propoxy]-2,6-difluorophenyl}-N-[(1S)-2,2,2-trifluoro-1-methylethyl][1,2,4]triazolo[1,5-a]pyrimidin-7-amine] | 29 nM | 6.4 | –
5 | C[C@H](Nc1c(-c2c(F)cc(OCCCN3CCCCC3)cc2F)c(Cl)nc2ncnn12)C(F)(F)F [Example 10, 5-Chloro-6-[2,6-difluoro-4-(3-piperidin-1-ylpropoxy)phenyl]-N-[(1S)-2,2,2-trifluoro-1-methylethyl][1,2,4]triazolo[1,5-a]pyrimidin-7-amine] | 113 nM | 6.3 | –
6 | C[C@H](Nc1c(-c2c(F)cc(OCCCN3CCN(C)CC3)cc2F)c(Cl)nc2ncnn12)C(F)(F)F [Example 6, 5-Chloro-6-{2,6-difluoro-4-[3-(4-methylpiperazin-1-yl)propoxy]phenyl}-N-[(1S)-2,2,2-trifluoro-1-methylethyl][1,2,4]triazolo[1,5-a]pyrimidin-7-amine] | 155 nM | 6.7 | –
7 | CNCCOc1cc(F)c(-c2c(Cl)nc3ncnn3c2N[C@@H](C)C(F)(F)F)c(F)c1 [Example 14, 5-Chloro-6-{2,6-difluoro-4-[2-(methylamino)ethoxy]phenyl}-N-[(1S)-2,2,2-trifluoro-1-methylethyl][1,2,4]triazolo[1,5-a]pyrimidin-7-amine] | 881 nM | 1.5 | –
8 | C[C@H](Nc1c(-c2c(F)cc(OCCN(C)C)cc2F)c(Cl)nc2ncnn12)C(F)(F)F [Example 16, 5-Chloro-6-{4-[2-(dimethylamino)ethoxy]-2,6-difluorophenyl}-N-[(1S)-2,2,2-trifluoro-1-methylethyl][1,2,4]triazolo[1,5-a]pyrimidin-7-amine] | 581 nM | 2.4 | –
9 | CCN(C)CCCOc1cc(F)c(-c2c(Cl)nc3ncnn3c2N[C@@H](C)C(F)(F)F)c(F)c1 [Example 8, 5-Chloro-6-(4-{3-[ethyl(methyl)amino]propoxy}-2,6-difluorophenyl)-N-[(1S)-2,2,2-trifluoro-1-methylethyl][1,2,4]triazolo[1,5-a]pyrimidin-7-amine] | 48 nM | 6.2 | –
10 | C[C@H](Nc1c(-c2c(F)cc(OCCCN(C)C)cc2F)c(Cl)nc2ncnn12)C(F)(F)F [Example 1, 5-Chloro-6-{4-[3-(dimethylamino)propoxy]-2,6-difluorophenyl}-N-[(1S)-2,2,2-trifluoro-1-methylethyl][1,2,4]triazolo[1,5-a]pyrimidin-7-amine] | – | – | IC50 (COLO 205 cells): 41 nM; tumor growth inhibition (activity call) [2]: active
11 | C[C@H](Nc1c(-c2ccc(OCCCN(C)C)cc2F)c(Cl)nc2ncnn12)C(F)(F)F [Example 13, 5-Chloro-6-{4-[3-(dimethylamino)propoxy]-2-fluorophenyl}-N-[(1S)-2,2,2-trifluoro-1-methylethyl][1,2,4]triazolo[1,5-a]pyrimidin-7-amine] | 262 nM | 5.4 | –
12 | C[C@H](Nc1c(-c2c(F)ccc(OCCN(C)C)c2F)c(Cl)nc2ncnn12)C(F)(F)F [Example 27, 5-Chloro-6-{3-[2-(dimethylamino)ethoxy]-2,6-difluorophenyl}-N-[(1S)-2,2,2-trifluoro-1-methylethyl][1,2,4]triazolo[1,5-a]pyrimidin-7-amine] | 1570 nM | – | –
13 | C[C@H](Nc1c(-c2c(F)cc(OCCCCO)cc2F)c(Cl)nc2ncnn12)C(F)(F)F [Example 21, 4-[4-(5-Chloro-7-{[(1S)-2,2,2-trifluoro-1-methylethyl]amino}[1,2,4]triazolo[1,5-a]pyrimidin-6-yl)-3,5-difluorophenoxy]butan-1-ol] | 151 nM | – | –
14 | C[C@H](Nc1c(-c2c(F)ccc(OCCCCN(C)C)c2F)c(Cl)nc2ncnn12)C(F)(F)F [Example 29, 5-Chloro-6-{3-[4-(dimethylamino)butoxy]-2,6-difluorophenyl}-N-[(1S)-2,2,2-trifluoro-1-methylethyl][1,2,4]triazolo[1,5-a]pyrimidin-7-amine] | 433 nM | – | –

Source: patent US7507739B2, “6-[(substituted)phenyl]triazolopyrimidines as anticancer agents” (Wyeth, priority 2003, dated 2009)
